In the NIST ThermoML archive (doi:10.1016/j.jct.2015.11.012):

Assay: xn = mol fraction of the nth substance listed
Conditions: 100 kPa, Liquid; for viscosity: Capillary tube (Ostwald / Ubbelohde) method; for speed of sound: Frequency=2 MHz, Linear variable-path acoustic interferometer; for mass density: Vibrating tube method

OCCCl [1-chloro-2-hydroxyethane] + Nc1cccc(Cl)c1
Conditions	mass density [kg/m3]	speed of sound [m/s]	viscosity [mPa·s]
303.15 K, x2 = 0	1192.12	1342.8	2.578
303.15 K, x2 = 0.0844	1194.38	1365.5	2.728
303.15 K, x2 = 0.1759	1196.5	1388.6	2.888
303.15 K, x2 = 0.2675	1198.32	1410	3.046
303.15 K, x2 = 0.3622	1199.9	1430.2	3.207
303.15 K, x2 = 0.4808	1201.48	1452.7	3.408
303.15 K, x2 = 0.5814	1202.58	1469.7	3.576
303.15 K, x2 = 0.6862	1203.51	1484.7	3.749
303.15 K, x2 = 0.7938	1204.28	1498	3.925
303.15 K, x2 = 0.8902	1204.84	1508.2	4.081
308.15 K, x2 = 0	1186.63	1328.5	2.259
308.15 K, x2 = 0.0844	1189.08	1351.3	2.402
308.15 K, x2 = 0.1759	1191.33	1374.1	2.553
308.15 K, x2 = 0.2675	1193.26	1395.1	2.703
308.15 K, x2 = 0.3622	1194.92	1415	2.855
308.15 K, x2 = 0.4808	1196.62	1437.1	3.045
308.15 K, x2 = 0.5814	1197.79	1454	3.203
308.15 K, x2 = 0.6862	1198.8	1469.2	3.367
308.15 K, x2 = 0.7938	1199.65	1482.5	3.532
308.15 K, x2 = 0.8902	1200.24	1492.7	3.679
313.15 K, x2 = 0	1178.05	1315.5	1.852
313.15 K, x2 = 0.0844	1181.05	1337.6	1.995
313.15 K, x2 = 0.1759	1183.78	1359.6	2.147
313.15 K, x2 = 0.2675	1186.13	1379.6	2.296
313.15 K, x2 = 0.3622	1188.2	1398.4	2.448
313.15 K, x2 = 0.4808	1190.36	1419.6	2.636
313.15 K, x2 = 0.5814	1191.88	1435.7	2.795
313.15 K, x2 = 0.6862	1193.24	1450.5	2.958
313.15 K, x2 = 0.7938	1194.4	1463.3	3.123
313.15 K, x2 = 0.8902	1195.27	1472.8	3.269
318.15 K, x2 = 0	1170.87	1301.2	1.564
318.15 K, x2 = 0.0844	1173.91	1323.6	1.698
318.15 K, x2 = 0.1759	1176.26	1345.1	1.84
318.15 K, x2 = 0.2675	1178.79	1365.6	1.978
318.15 K, x2 = 0.3622	1181.24	1384.1	2.118
318.15 K, x2 = 0.4808	1184.01	1404.8	2.292
318.15 K, x2 = 0.5814	1185.85	1420.8	2.438
318.15 K, x2 = 0.6862	1187.52	1435.5	2.589
318.15 K, x2 = 0.7938	1189.32	1448.6	2.741
318.15 K, x2 = 0.8902	1190.2	1458	2.874
